Reference: patent publication US12372525B2 (priority 2013, dated 2025)

Columns and labels:
[1] = molecular target: purified influenza H3N2 neuraminidase (Influenza A virus, UniProt O91745); type: biochemical
[2] = system: seasonal flu; conditions: in vivo; cited from earlier work
[3] = system: A/Perth/211/2001 WT; type: biochemical

Chain of purified influenza H3N2 neuraminidase (O91745 whole entry, looked up): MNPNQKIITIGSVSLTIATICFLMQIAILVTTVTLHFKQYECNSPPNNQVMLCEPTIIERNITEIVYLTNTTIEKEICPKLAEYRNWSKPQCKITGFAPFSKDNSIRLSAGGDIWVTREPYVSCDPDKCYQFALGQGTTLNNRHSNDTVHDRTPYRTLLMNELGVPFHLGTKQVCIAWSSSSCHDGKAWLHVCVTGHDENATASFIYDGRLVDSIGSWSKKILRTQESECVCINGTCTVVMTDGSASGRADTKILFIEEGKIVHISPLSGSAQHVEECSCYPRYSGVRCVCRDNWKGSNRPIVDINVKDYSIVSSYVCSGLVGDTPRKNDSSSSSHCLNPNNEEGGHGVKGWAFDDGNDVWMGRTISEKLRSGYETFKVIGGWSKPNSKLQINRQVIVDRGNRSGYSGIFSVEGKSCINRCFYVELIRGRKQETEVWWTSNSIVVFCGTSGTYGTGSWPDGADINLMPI

| Structure (SMILES) | level of detection (LOD) of neuraminidase with this substrate [1] | effective in prophylaxis against seasonal flu [2] [%] | Inhibition value [3] |
| --- | --- | --- | --- |
| CC(=O)NC1C(O)CC(Oc2ccc(CCC(=O)C(F)(F)F)cc2)(C(=O)[O-])OC1C(O)C(O)CO.[Na+] (stereo not shown) [NANA-CF3] | about 10 pM |  |  |
| CCOC(=O)C1=C[C@@H](OC(CC)CC)[C@H](NC(C)=O)[C@@H](N)C1 [Oseltamivir] |  | 80 | 1.48/1.34 |
| CC(=O)N[C@H]1[C@H]([C@H](O)[C@H](O)CO)OC(C(=O)O)=C[C@@H]1N=C(N)N [Zanamivir] |  | 80 |  |
